According to PubChem BioAssay (NCI):
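Cells were grown in 96-well plates and exposed to each compound for 48 hours at five concentrations; endpoints were interpolated linearly between bracketing concentrations, or set to the highest concentration if not reached. GI50: concentration for 50% inhibition of growth. TGI: concentration producing complete growth inhibition.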

Legend:
Assay in all cases: inhibition of tumour cell growth, NCI panel, 48 h
HCC-2998 colon = test system: HCC-2998 colon
SNB-75 CNS = test system: SNB-75 CNS
A498 renal = test system: A498 renal
MALME-3M melanoma = test system: MALME-3M melanoma
TK-10 renal = test system: TK-10 renal
HOP-92 NSCLC = test system: HOP-92 NSCLC
MDA-MB-231 breast = test system: MDA-MB-231 breast
HCT-15 colon = test system: HCT-15 colon
SNB-19 CNS = test system: SNB-19 CNS
SR leukemia = test system: SR leukemia

| SMILES | GI50 (HCC-2998 colon) | TGI (HCC-2998 colon) | GI50 (SNB-75 CNS) | TGI (SNB-75 CNS) | GI50 (A498 renal) | TGI (A498 renal) | GI50 (MALME-3M melanoma) | TGI (MALME-3M melanoma) | GI50 (TK-10 renal) | TGI (TK-10 renal) | GI50 (HOP-92 NSCLC) | TGI (HOP-92 NSCLC) | GI50 (MDA-MB-231 breast) | TGI (MDA-MB-231 breast) | GI50 (HCT-15 colon) | TGI (HCT-15 colon) | GI50 (SNB-19 CNS) | TGI (SNB-19 CNS) | GI50 (SR leukemia) | TGI (SR leukemia) |
| --- | --- | --- | --- | --- | --- | --- | --- | --- | --- | --- | --- | --- | --- | --- | --- | --- | --- | --- | --- | --- |
| Cn1ccnc1C(=O)/C=C/c1ccc(CC(=O)Nc2cc(F)c(F)c(F)c2)cc1 | 2.55 µM | 6.04 µM | 0.867 µM | > 25 µM | 3.58 µM | 7.65 µM | 3.65 µM | 10.8 µM | 4.29 µM | 13.4 µM | 2.59 µM | 7.44 µM | 4.04 µM | > 25 µM | 1.03 µM | 6.58 µM | 2.87 µM | 6.59 µM | 0.861 µM | 8.91 µM |
| O=[N+]([O-])C1(CO)COC2(OC1)c1ccccc1-c1ccccc12 | – | > 100 µM | – | > 100 µM | – | > 100 µM | – | 73.9 µM | – | > 100 µM | – | > 95.7 µM | – | > 100 µM | – | > 100 µM | – | > 100 µM | – | 82.1 µM |
| O=C(N/N=C\c1cc(Br)cc(Br)c1O)N/N=C/c1cc(Br)cc(Br)c1O | 13.4 µM | 32.5 µM | 1.11 µM | 15.6 µM | 7.81 µM | 22.8 µM | 11.5 µM | 31.3 µM | 10.6 µM | 26.2 µM | 1.85 µM | 16.4 µM | 4.18 µM | 17.5 µM | 2.77 µM | 16.1 µM | 3.65 µM | 17.7 µM | 1.13 µM | 26.7 µM |
| CCc1cc(Nc2nccc(-c3c(-c4ccc(OC)c(C(=O)Nc5c(F)cccc5F)c4)nc4ccccn34)n2)c(OC)cc1N1CCC(N2CCN(S(C)(=O)=O)CC2)CC1 | > 100 µM | > 100 µM | > 50.1 µM | > 100 µM | > 100 µM | > 100 µM | > 100 µM | > 100 µM | > 90.4 µM | > 100 µM | 1.14 µM | > 80 µM | 44.3 µM | > 100 µM | > 100 µM | > 100 µM | > 56.6 µM | > 100 µM | > 100 µM | > 100 µM |
| Fc1ccc(-c2ncn(C3CCNCC3)c2-c2ccnc(Oc3ccc(Oc4ccccc4)cc3)n2)cc1 | 3.15 µM | 6.69 µM | 3.4 µM | 6.67 µM | 3.57 µM | 7.01 µM | 4.68 µM | 8.95 µM | 4.35 µM | 7.98 µM | 0.651 µM | 4.15 µM | 3.71 µM | 7.17 µM | 3.55 µM | 7.29 µM | 4.25 µM | 7.92 µM | 2.1 µM | 6.42 µM |
| CCOC(=O)Nc1ccc2nc(Sc3ccc(Cl)cc3)sc2c1 | 15.3 µM | > 71.4 µM | 2.96 µM | 33.9 µM | 1.19 µM | 26.8 µM | 5.7 µM | 37.1 µM | 9.1 µM | 58.4 µM | 7.98 µM | 65.4 µM | 4.47 µM | 34 µM | 0.632 µM | > 87.3 µM | 7.31 µM | > 100 µM | 0.358 µM | > 32.9 µM |
| C=C(C)[C@@H]1CC[C@@H]2C(=CC[C@]3(C)C([C@H](C)CC/C=C(/C)C(=O)O)CC[C@@]23C)[C@@]1(C)CCC(=O)O (stereo not given in full) | – | 35.1 µM | – | > 100 µM | – | 74.4 µM | – | 61 µM | – | > 100 µM | – | 43 µM | – | 60.2 µM | – | 44.4 µM | – | > 100 µM | – | 49.4 µM |
| COc1cc2cc(Oc3ccc(NC(=O)Nc4cc(C(F)(F)F)cc(C(F)(F)F)c4)cc3)c(C)nc2cc1OCCN1CCCCC1 | 1.78 µM | 3.29 µM | 1.45 µM | 2.99 µM | 1.75 µM | 3.23 µM | 1.59 µM | 3.02 µM | 2.06 µM | 3.71 µM | 1.24 µM | 2.57 µM | 1.52 µM | 2.99 µM | 1.62 µM | 3.09 µM | 1.71 µM | 3.18 µM | 1.75 µM | 5.79 µM |
